Test results published in patent publication US20100256123A1, “P2X4 RECEPTOR ANTAGONIST” (NIPPON CHEMIPHAR CO., LTD., priority 2006, published 2010).

Target: T1, human P2X4 receptor (Homo sapiens, UniProt Q99571)
T1 sequence (Q99571 1-388): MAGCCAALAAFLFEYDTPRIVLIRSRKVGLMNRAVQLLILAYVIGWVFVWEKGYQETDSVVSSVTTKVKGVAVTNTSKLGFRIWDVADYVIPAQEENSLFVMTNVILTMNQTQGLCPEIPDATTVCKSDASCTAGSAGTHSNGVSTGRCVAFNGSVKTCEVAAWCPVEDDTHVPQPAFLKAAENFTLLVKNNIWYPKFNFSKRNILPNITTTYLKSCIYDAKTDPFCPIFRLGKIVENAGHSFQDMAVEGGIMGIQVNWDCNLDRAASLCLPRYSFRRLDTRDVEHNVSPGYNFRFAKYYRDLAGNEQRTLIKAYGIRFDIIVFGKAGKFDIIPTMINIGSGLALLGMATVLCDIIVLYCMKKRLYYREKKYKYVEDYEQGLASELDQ
Test: P2X4 receptor antagonism: ATP-induced calcium change (Fura2-AM) in 1321N1 cells stably expressing human P2X4 receptor
Assay type: cell-based
Conditions: ATP (10 μm)-induced maximal calcium change = 100% control, compound applied 10 minutes before ATP; for Inhibition ratio % (at 10^−5 M): Pharmacological Experimental 2
Description: The P2X4 receptor antagonisms of the compounds according to the invention were determined in the following manner.
(§1) 1321N1 cells were transfected human P2X4 receptor-encoding expression vector using a EUGENE 6 transfection reagent (Roche). After cultivation of one week, it was confirmed that P2X4 receptor was stably expressed. Cells were loaded with Fura2-AM calcium fluorescent dye (SIGMA) and the fluorescence changes were monitored using Aqua-Cosmos (Hamamatsu Photonics). ATP (10 μm)-induced maximal […] calcium change was defined as 100% of control response to calculate the inhibition percentage of test compounds at each concentration. Test compounds were treated onto cells 10 minutes before ATP stimulation.
as §1, with “FuGENE” for “EUGENE”
The experimental procedures of Example 10 were repeated.

| Compound | inhibition ratio (at 10^−5M, Pharmacological Experimental 1) | Inhibition ratio % (at 10^−5 M) |
| --- | --- | --- |
| O=C1CN=C(c2cccc(O)c2)c2ccc3ccccc3c2N1 [Example 2, 5-(3-Hydroxyphenyl)-1,3-dihydro-2H-naptho-[1,2-e]-1,4-diazepin-2-one] | 69% | – |
| O=C1CN=C(c2ccc(O)cc2)c2ccc3ccccc3c2N1 [Example 4, 5-(4-Hydroxyphenyl)-1,3-dihydro-2H-naptho-[1,2-e]-1,4-diazepin-2-one] | – | 53% |
| O=C1CN=C(c2ccc(O)c(O)c2)c2ccc3ccccc3c2N1 [Example 9, 5-(3,4-Dihydroxyphenyl)-1,3-dihydro-2H-naptho[1,2-e]-1,4-diazepin-2-one] | – | 63% |
